Series [1] deals with hAPP-J20 mouse brain sections. The series is described as follows: Tissue section overlay of FAM-labeled peptides on mouse brain sections. Format: binding. As to conditions: hAPP-J20 vs age-matched wild-type mice, hippocampal region. Here is the method: (§1) PFA fixed sections were incubated in PBS for 10 minutes, followed by PBS-Triton-x-100 (0.2%) for 10 minutes. Sections were rinsed with PBST, mounted in a slide holder, and subsequently washed with PBS-T during 12 minutes. Slides were blocked with blocking buffer for 60 minutes at room temperature. Then, peptides were incubated at a concentration of 10 μg/mL dissolved in concentrated blocking buffer, for three hours at room temperature. Sections were then washed with three 4-minute washes of PBS-T, and subsequently fixed with PFA for 10 minutes, followed by three 3-minute washes with PBS-T. Sections were then incubated with primary antibody at 1/200 in diluted blocking buffer overnight at 4° C. Later, sections were washed with three 4-minute washes with PBS-T. Slides were then incubated with secondary antibody at 1/200 dilution in diluted blocking buffer for 30 minutes at room temperature, followed by three 4-minute washes of PBS-T. Sections were then counterstained with DAPI for 5 minutes, washed with PBS-T and mounted.

The test system of series [2] is hAPP-J20 mouse brain (hippocampus).
Protocol: The synthetic peptides were labeled with FAM and 100 nmol and were intravenously injected to 9-month old AD mice through the tail vein. The peptides were allowed to circulate for 30 min, after which the mice were perfused with 20 ml of PBS, the brains were collected and snap-frozen in OCT for sectioning. The peptides were detected by anti-FAM staining (green), nuclei were stained with DAPI (blue), and anti-CD31 was used to visualize blood vessels.
For peptide homing, mice were intravenously injected with 50 nmole peptide dissolved in PBS, and allowed to circulate for 30 min. Mice were then perfused intracardially with saline and all major organs were isolated and fixed in 4% paraformaldehyde (PFA) at pH 7.4 overnight. The organs were then washed with PBS and placed in graded sucrose solutions overnight before optimal cutting temperature compound (OCT) embedding. Ten-micro-meter-thick sections were cut and analyzed by immunostaining.
Frozen sections were permeabilized using PBS- 0.2% Triton™ X-100 (PBST), blocking was carried out using blocking buffer (5% BSA, 1% goat serum, 1% donkey serum in PBST. Primary antibodies were incubated in diluted (1%) blocking buffer overnight at dilutions 1/100 or 1/200 at 4° C., washed with PBST and incubated with secondary antibodies diluted 1/200 or 1/500 in 1% diluted buffer for 1 hour at room temperature, subsequently washed with PBST, counterstained with DAPI 1 μg/mL in PBS for 5 minutes, washed with PBS, mounted using aqueous mounting media (Vector Biolabs), and imaged using a confocal microscope (Zeiss LSM-710).
Series [3] concerns human iPS cell-derived endothelial cells (ECs) from an AD patient. The series is described as follows: AgNP binding to hiPSC-derived brain endothelial cells. Format: cell-based. An excerpt: Human iPS cell-derived from an AD patient and from a normal individual were differentiated into endothelial cells and the cultured cells were used in an overlay assay with DAG-coated and control AgNP.
The details of human induced pluripotent stem cells (hiPSCs) derived from Alzheimer disease patients with APP duplication, and non-demented control individuals, are described previously (Israel et al., Nature 482, 216-220 (2012)). These hiPSCs were extensively characterized and have been established as an excellent human model for AD. An additional AD hiPSC line generated from dermal fibroblasts from an individual harboring a Presenilinl (PSEN1) mutation (Coriell Institute, Cat #AG06840) was used to further validate the results from the APP lines. hiPSCs were routinely maintained on mouse embryonic fibroblast as described before (Lin et al., Nat Methods 6, 805-808 (2009); Talantova et al., Proc Natl Acad Sci USA 110, E2518-2527 (2013)). Brain microvascular endothelial cells differentiation of hiPSCs was performed using a previously described protocol (Lippmann et al., Nature biotechnology 30, 783-791 (2012), with minor modifications. Briefly, feeder-free cultures of hiPSCs were allowed to spontaneously differentiate in the absence of bFGF for 5-7 days, and then transferred to Endothelial cell (EC) medium composed of human Endothelial Serum-Free Medium™ (Invitrogen) supplemented with 20 ng/ml bFGF and 1% platelet-poor plasma-derived bovine serum (PDS; Biomedical Technologies). After 1-2 days the cells were dissociated with dispase (2 mg/ml) and were plated on 12 well plates coated with a mixture of collagen IV (400 μg/ml) and fibronectin (100 μg/ml). Cells were then cultured in EC medium until they reached confluence, after which they were split and expanded to near 100% purity. BBB-type EC identity was confirmed by flow cytometry or double immunoreactivity to the hallmark efflux transporter p-glycoprotein and other EC markers (CD31, GLUT-1, PECAM, Occludin, and Claudin-5). Furthermore, the capability of these cells to make functional tight junctions and polarized efflux activity was validated using a dual chamber efflux transport assay as described before.
Cell binding experiments on U251 cells and hiPSCs were with done using peptide conjugated AgNP. U251 cells were cultured in a 96-well plate. The cells were blocked with 200 μl of 10% FCS in HBSS (Hanks' Balanced Salt Solution from Gibco) for 30 min at 37° C. Following that, DAG-AgNPs (0.5 nM concentration diluted in HBSS) alone or in the presence of free non-labeled peptide (200 μM) were incubated on the cells for 1 hour at 37° C. After washing the unbound AgNP with HBSS three times, the plates were imaged with fluorescent microscopy by looking at intrinsic emission from the FAM tag on the peptide. hiPSCs were cultured in 48 well plate and similar protocol as described above was followed, with the exception that AgNP concentration for incubation was kept at 0.15 nM. Nanoparticle binding was quantified from fluorescence micrographs using ImageJ™ software.

A further series concerns human AD brain sections. Briefly: Ex vivo overlay binding to human AD brain sections. How it is done: as §1
Postmortem human brain samples were obtained from the New York Brain Bank at Columbia University, New York. The patient was a person with a diagnosis of AD neuropathologic changes ([A3, B3, C3]). The normal brain tissue was obtained from BioChain Institute Inc. (Newark, Calif.). The donor was a person without any neurologic diagnosis on detailed neuropathologic evaluation. The Parkinson's disease brain tissue was obtained from UCSD Pathology bank. Frozen brain tissue was sectioned for immunohistochemistry and ex vivo overlay binding with FAM-peptides.

Series [4] concerns acute penetrating brain injury. The series is described as follows: In vivo homing in acute penetrating brain injury model. On the set-up: species or system mouse. As to conditions: injected 6 hours after injury. How it is done: All animal experiments were conducted under an approved protocol of the Institutional Animal Care and Use Committee of Sanford Burnham Prebys Medical Discovery Institute. The following transgenic mouse models were used for peptide homing studies—hAPP-J20 ([…], Nature genetics 1, 345-347 (1992)), Tg2576 (Jacobsen et al., Proc Natl Acad Sci USA 103, 5161-5166 (2006)), and mTHY-1-α-synuclein model (Chesselet et al., Neurotherapeutics 9, 297-314 (2012)). The P13 glioblastoma model is a patient-derived orthotopic xenograft model (Bougnaud et al., Oncotarget, (2016)). Spheroids were cultured as described previously (Bjerkvig et al., J Neurosurg 72, 463-475 (1990)). After two weeks in culture, spheroids (volume 2.5 μl) were stereotactically implanted into the brains of nude mice. Mice were used approximately 6 weeks after tumors were induced, when mice started presenting neurological symptoms. The acute brain injury model was setup as previously described (Mann et al., Nature communications 7, 11980 (2016)). Briefly, 8 to 10 week-old male BL6 mice were anaesthetized with 4% isoflurane in 70% N2O and 30% O2, and a 5-mm craniotomy was performed using a portable drill and a trephine over the right parietotemporal cortex using a stereotactic frame. […]

“Also recorded” adds a separate entry of the source.

Results on one sequence are retold here after patent US11571485B2, “Peptides and antibodies for detecting changes in alzheimer's disease brain and methods of use thereof” (Sanford Burnham Prebys Medical Discovery Institute, priority 2016, dated 2023).

As to CDAGRKQKC, in series [1], the “Ex vivo peptide binding to brain sections” value is given as “bound to a much greater degree in the hippocampal region of hAPP-J20 mice than to age-matched wild-type mice; also recorded: far stronger than DAG binding to WT brain”. Also, the “Homing in early-stage AD” value in series [2] (3-4 month old hAPP-J20 mice, i.v., 30 min) is “Robust DAG homing in young hAPP-J20 animals was observed, mostly in the cerebrocortex and the hippocampus”. Moreover, the “Cellular localization in brain” value in series [2] (DAG-injected hAPP-J20 mice, anti-GFAP and anti-Aβ staining) was “accumulated within a subpopulation of GFAP-positive hypertrophic astrocytes surrounding the Aβ plaques”. The “Accumulation in other organs” value in series [2] (mouse, in vivo, iv) is recorded as “little if any accumulation of the peptide in other organs of the hAPP-J20 mouse except for kidney”. In addition, the “Binding to AD patient iPS cell-derived endothelial cells” value in series [3] (AD patient vs normal donor cells) was “recognizes endothelial cells differentiated from AD iPS cells and not cells prepared similarly from a control individual”. Also, the “Binding to hiPSC-derived BMECs from non-demented individual” value in series [3] (control cells) is “did not bind to hiPSC-derived BMECs from a non-demented individual”. Also, the “Binding to human AD brain sections” value with human AD brain sections (overlay) is “bound strongly to the hippocampal region”. For the same sequence, the “Inhibition of binding to human AD sections by anti-CTGF antibody” value in the series with human AD brain sections (pre-incubation with anti-CTGF antibody) is reported as “partially inhibited by pre-incubation with anti-CTGF antibody”. Moreover, the “Homing to brain injury” value in series [4] is “robustly homed to the perilesional area containing activated hypertrophic astrocytes”.
